The series is described as follows: Heated color test: SA plus 1,4-butanediol with trace glucose and/or alanine, 180° C., visual inspection. It is filed as physicochemical. Particulars: 1.0 gram 1,4-butanediol plus 0.5 gram SA, 2 hours. How it is done:
Glass vials were charged with 1,4-butanediol, pure SA, and trace levels of either glucose, alanine, or both. The vials were heated at 180° C. for 2 hours and any color changes observed by visual inspection. [table]

The source of these data is patent US20130072714A1, “BIOBASED COMPOSITIONS OF DIAMMONIUM SUCCINATE, MONOAMMONIUM SUCCINATE AND/OR SUCCINIC ACID AND DERIVATIVES THEREOF” (BioAmber International S.à.r.l., priority 2011, published 2013).

Entries after “also recorded” stand apart in the source; their conditions may differ.

As for `C[C@H](N)C(=O)O` [Alanine, alanine], the “color change on heating, single impurity” value runs as follows: (impurity 10 ppm) “No color”; (impurity 100 ppm) “No color”; (impurity 1000 ppm) “Slight yellow”.
For the compound `O=C(O)CCC(=O)O` [SA, succinic acid], the “color change on heating, two impurities” value (glucose 5 ppm, alanine 5 ppm) is “No color”; the “color change on heating, two impurities” value (glucose 5 ppm, alanine 50 ppm) is listed as “yellow color; also recorded: Slight”; the “color change on heating, two impurities” value (glucose 5 ppm, alanine 500 ppm) was “Slight”; the “color change on heating, two impurities” value (glucose 50 ppm, alanine 5 ppm) is recorded as “No color”; the “color change on heating, two impurities” value (glucose 50 ppm, alanine 50 ppm) is reported as “Slight”; the “color change on heating, two impurities” value (glucose 50 ppm, alanine 500 ppm) is “Light”. The “color change on heating, two impurities” value is, setting by setting: (glucose 500 ppm, alanine 5 ppm) “No color”; (glucose 500 ppm, alanine 50 ppm) “Slight”; (glucose 500 ppm, alanine 500 ppm) “Light”.
